Test results taken from patent publication US8791158B2, “Methods of treating meibomian gland dysfunction” (GTX, Inc., priority 2010, dated 2014).

Tests used:
[1] = Pharmacokinetic analysis of rabbit plasma after topical dosing, Example 4; type: in vivo; conditions: topical or ocular, 2.5 mg/kg, topical 2.5 mg/kg, day 11 of dosing, read-out: Mean plasma concentrations over time (AUC)
Procedure: Immediately after the animals had recovered from anesthesia, they were dosed with the appropriate test articles as indicated above. Drug dosing was done once daily for 14 d. Blood samples were collected at 30, 60, 120, 240 and 1440 minutes after dose administration on day 11 for pharmacokinetic analyses. Plasma was separated for HPLC analysis of parent drug concentrations. Tears were collected using Schirmer tear strips (Alcon, Tex.) on day 0 before surgery and 24 hours after the last administration of drug (day 15). The tears were stored at −80° C. until shipment for analysis. […] Area under the curve for each individual peak was determined using the GC ChemStation software. To normalize for the tear content, the lipid composition was expressed as a ratio of the lipid that was most affected by castration (palmitate) to one which remained relatively constant (stearate).
Plasma samples collected after dosing on day 11 were analyzed using an LCMS/MS method. […]
Mobile phase consisted of 60% acetonitrile, 40% water and 0.1% formic acid. […] The plasma concentration—time data were analyzed by non-compartmental methods using WinNonlin (Version 3.1, Pharsight Corporation, Mountain View, Calif., USA). The area under the plasma concentration—time curve from time zero to infinity (AUC) was calculated by the trapezoidal rule with extrapolation to time infinity. […]

[2] = system: acute orchiectomized (ORX) rabbit model; assay: Oil-Red-O lipid staining score of Meibomian gland (eyelid) sections, Example 4; type: in vivo; conditions: ORX rabbits, topical 2.5 mg/kg; scale 0-4 by % cells stained; sham 3.75, ORX vehicle 3.2
Procedure: At the end of the study, the animals were euthanatized. The left harderian and Meibomian glands were collected for lipid analysis and snap frozen using an ethanol:dry ice bath. Samples were stored at −80° C. until shipment for analysis. The right eyelids were embedded in OCT medium and shipped to Paragon Biosciences (Washington D.C.) for histology and Oil-red-O quantification of lipids. Images of three separate fields were taken from each eyelid at random and the amount of cells staining red in each field was scored using commercially available software. A scoring scheme was adopted with a scale of 0-4 to evaluate the staining intensities with 0=<1% cells stained, 1+ for 2-5% of cells stained, 2+=6-10% stain, 3+=11-20% staining, 4+ for >21% cells stained.
Oil-Red-O is a lipophilic dye that is commonly used to stain lipid containing cells in histological sections. The amount of Oil-Red-O stain in each section is proportional to the number of cells synthesizing or storing lipid. A relative scoring system was adopted to evaluate the differences in lipid content of the Meibomian gland sections from treated and untreated animals in the study. […] Upon treatment with Compound 2, the lipid staining was seen to increase to that of the intact animals (score=3.8).

C[C@](O)(COc1ccc(C#N)c(F)c1)C(=O)Nc1ccc(C#N)c(C(F)(F)F)c1 [Compound 2, (S)—N-(4-cyano-3-(trifluoromethyl)phenyl)-3-(4-cyano-3-fluorophenoxy)-2-hydroxy-2-methylpropanamide]
AUC [1]: 12.2 µM·h | Oil-Red-O score [2]: 3.8

C[C@](O)(COc1ccc(C#N)cc1)C(=O)Nc1ccc(C#N)c(C(F)(F)F)c1 [Compound 1, (S)—N-(4-Cyano-3-(trifluoromethyl)phenyl)-3-(4-cyanophenoxy)-2-hydroxy-2-methylpropanamide]
AUC [1]: 25.2 µM·h | Oil-Red-O score [2]: 3.4
